Laboratory results reported in US9856279B2 (AGIOS PHARMACEUTICALS, INC, priority 2011, dated 2018).

Target: IDH1 R132H (Homo sapiens, UniProt O75874, R132H)
Assay: Assay for IDH1 R132H inhibitors (NADPH/aKG, resazurin detection)
Assay type: biochemical
Conditions: enzyme assay of Example 12; read-out: IDH1R132H IC50
Outline: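 Compound added to substrate mix (8 uM NADPH, 2 mM aKG), then enzyme mix (0.2 μg/ml IDH1 R132H); 50 min RT in 20 mM Tris pH 7.5, 150 mM NaCl, 10 mM MgCl2, 0.03% BSA. Resazurin detection mix (30 μM) 5 min RT; resorufin fluorescence Ex544/Em590.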

Sequence of IDH1 R132H (O75874 whole entry R132H): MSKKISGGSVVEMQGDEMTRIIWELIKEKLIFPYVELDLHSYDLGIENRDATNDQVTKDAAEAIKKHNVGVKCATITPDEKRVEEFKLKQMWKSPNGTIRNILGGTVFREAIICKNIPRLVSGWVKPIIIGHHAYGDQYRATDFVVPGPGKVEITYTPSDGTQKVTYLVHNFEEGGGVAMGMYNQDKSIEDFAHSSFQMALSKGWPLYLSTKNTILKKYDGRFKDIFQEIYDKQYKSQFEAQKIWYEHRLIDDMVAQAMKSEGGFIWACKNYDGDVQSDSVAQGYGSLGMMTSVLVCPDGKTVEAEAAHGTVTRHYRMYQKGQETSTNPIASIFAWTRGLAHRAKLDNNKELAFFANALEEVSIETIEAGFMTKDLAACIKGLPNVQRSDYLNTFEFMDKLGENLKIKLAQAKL

| Structure (SMILES) | IC50 |
| --- | --- |
| N#Cc1cc(-c2cnnc(O)c2)c(C2CC2)nc1N1CCN(C(=O)C2CC2)[C@H](C2CC2)C1 [Compound 616, (R)-2-(4-(cyclopropanecarbonyl)-3-cyclopropylpiperazin-1-yl)-6-cyclopropyl-5-(6-hydroxypyridazin-4-yl)nicotinonitrile] | < 500 nM |
| C=CC(=O)N1CC=C(c2cc(C#N)c(N3CCN(C(=O)C4CC4)[C@H](C)C3)nc2C2CC2)CC1 [Compound 630, (R)-5-(1-acryloyl-1,2,3,6-tetrahydropyridin-4-yl)-2-(4-(cyclopropanecarbonyl)-3-methylpiperazin-1-yl)-6-cyclopropylnicotinonitrile] | 500 to 1000 nM |
| C=Cc1cc(-c2cc(C#N)c(N3CCN(C(=O)CO)[C@H](C)C3)nc2C2CC2)ccn1 [Compound 632, (R)-2-cyclopropyl-6-(4-(2-hydroxyacetyl)-3-methylpiperazin-1-yl)-2′-vinyl-3,4′-bipyridine-5-carbonitrile] | < 500 nM |
| Cn1ncc(-c2cc(C#N)c(N3CCN(C(=O)C4CC4)[C@H](C4CC4)C3)nc2C2CC2)cc1=O [Compound 640, (R)-2-(4-(cyclopropanecarbonyl)-3-cyclopropylpiperazin-1-yl)-6-cyclopropyl-5-(1-methyl-6-oxo-1,6-dihydropyridazin-4-yl)nicotinonitrile] | < 500 nM |
| N#Cc1cc(-c2cc(C#N)c(N3CCN(C(=O)C4CC4)[C@H](C4CC4)C3)nc2C2CC2)cnn1 [Compound 641, (R)-5-(5-cyano-6-(4-(cyclopropanecarbonyl)-3-cyclopropylpiperazin-1-yl)-2-cyclopropylpyridin-3-yl)pyridazine-3-carbonitrile] | < 500 nM |
| C=Cc1ccnc(N(c2cc(C=C)ccn2)c2cc(C#N)c(N3CCN(C(=O)CCOC)[C@H](C)C3)nc2C2CC2)c1 [Compound 646, (R)-5-(bis(4-vinylpyridin-2-yl)amino)-6-cyclopropyl-2-(4-(3-methoxypropanoyl)-3-methylpiperazin-1-yl)nicotinonitrile] | < 500 nM |
| COCCC(=O)N1CCN(c2nc(C3CC3)c(-c3ccc(C(=O)N(C)OC)cc3)cc2C#N)C[C@H]1C [Compound 656, (R)-4-(5-cyano-2-cyclopropyl-6-(4-(3-methoxypropanoyl)-3-methylpiperazin-1-yl)pyridin-3-yl)-N-methoxy-N-methylbenzamide] | 500 to 1000 nM |
| COCCC(=O)N1CCN(c2nc(C3CC3)c(N(c3ccnc(C#N)c3)c3ccnc(C#N)c3)cc2C#N)C[C@H]1C [Compound 659, (R)-4,4′-(5-cyano-2-cyclopropyl-6-(4-(3-methoxypropanoyl)-3-methylpiperazin-1-yl)pyridin-3-ylazanediyl)dipicolinonitrile] | < 500 nM |
| C[C@@H]1CN(c2nc(C3CC3)c(Nc3ccnc(Cl)c3)cc2C#N)CCN1C(=O)CCO [Compound 661, (R)-5-((2-chloropyridin-4-yl)amino)-6-cyclopropyl-2-(4-(3-hydroxypropanoyl)-3-methylpiperazin-1-yl)nicotinonitrile] | < 500 nM |
| COCCC(=O)N1CCN(c2nc(C3CC3)c(-c3ccc(C(=O)OC)cc3)cc2C#N)C[C@H]1C [Compound 665, (R)-methyl-4-(5-cyano-2-cyclopropyl-6-(4-(3-methoxypropanoyl)-3-methylpiperazin-1-yl)pyridin-3-yl)benzoate] | < 500 nM |
| N#Cc1cc(-c2cnnc(O)c2)c(C2CC2)nc1N1CCN(C(=O)CCO)[C@H](C2CC2)C1 [Compound 671, (R)-6-cyclopropyl-2-(3-cyclopropyl-4-(3-hydroxypropanoyl)piperazin-1-yl)-5-(6-hydroxypyridazin-4-yl)nicotinonitrile] | < 500 nM |
| COCCC(=O)N1CCN(c2nc(C3CC3)c(-c3cc(Cl)nc(C#N)c3)cc2C#N)C[C@H]1C [Compound 673, (R)-6′-chloro-2-cyclopropyl-6-(4-(3-methoxypropanoyl)-3-methylpiperazin-1-yl)-[3,4′-bipyridine]-2′,5-dicarbonitrile] | 500 to 1000 nM |
| COCCC(=O)N1CCN(c2nc(C3CC3)c(Nc3ccnc(OC)c3)cc2C#N)C[C@H]1C [Compound 682, (R)-6-cyclopropyl-2-(4-(3-methoxypropanoyl)-3-methylpiperazin-1-yl)-5-((2-methoxypyridin-4-yl)amino)nicotinonitrile] | < 500 nM |
| COCCC(=O)N1CCN(c2nc(C3CC3)c(Nc3ccnc(C(=O)OC)c3)cc2C#N)C[C@H]1C [Compound 683, (R)-methyl 4-((5-cyano-2-cyclopropyl-6-(4-(3-methoxypropanoyl)-3-methylpiperazin-1-yl)pyridin-3-yl)amino)picolinate] | < 500 nM |
| N#Cc1cc(Cc2ccnc(Cl)c2)c(C2CC2)nc1N1CCN(C(=O)C2CC2)[C@H](C2CC2)C1 [Compound 685, (R)-5-((2-chloropyridin-4-yl)methyl)-2-(4-(cyclopropanecarbonyl)-3-cyclopropylpiperazin-1-yl)-6-cyclopropylnicotinonitrile] | 1000 to 10000 nM |
| COCCC(=O)N1CCN(c2nc(C3CC3)c(N(C)c3ccnc(Cl)c3)cc2C#N)C[C@H]1C [Compound 699, (R)-5-((2-chloropyridin-4-yl)(methyl)amino)-6-cyclopropyl-2-(4-(3-methoxypropanoyl)-3-methylpiperazin-1-yl)nicotinonitrile] | < 500 nM |
| N#Cc1cc(-c2cc(CCN)nc(N)n2)c(C2CC2)nc1N1CCN(C(=O)C2CC2)[C@H](C2CC2)C1 [Compound 701, (R)-5-(2-amino-6-(2-aminoethyl)pyrimidin-4-yl)-2-(4-(cyclopropanecarbonyl)-3-cyclopropylpiperazin-1-yl)-6-cyclopropylnicotinonitrile] | < 500 nM |
| C[C@@H]1CN(c2nc(C3CC3)c(Oc3ccnc(Cl)c3)cc2C#N)CCN1C(=O)CCO [Compound 704, (R)-5-((2-chloropyridin-4-yl)oxy)-6-cyclopropyl-2-(4-(3-hydroxypropanoyl)-3-methylpiperazin-1-yl)nicotinonitrile] | < 500 nM |
| CC(C)(C)OC(=O)Nc1cnnc(-c2cc(C#N)c(N3CCN(C(=O)CCO)[C@H](C4CC4)C3)nc2C2CC2)c1 [Compound 723, (R)-tert-butyl(6-(5-cyano-2-cyclopropyl-6-(3-cyclopropyl-4-(3-hydroxypropanoyl)piperazin-1-yl)pyridin-3-yl)pyridazin-4-yl)carbamate] | < 500 nM |
| COCCC(=O)N1CCN(c2nc(C3CC3)c(Nc3ccnc(C(N)=O)c3)cc2C#N)C[C@H]1C [Compound 729, (R)-4-(5-cyano-2-cyclopropyl-6-(4-(3-methoxypropanoyl)-3-methylpiperazin-1-yl)pyridin-3-ylamino)picolinamide] | < 500 nM |
| N#Cc1cc(Oc2cc(Cl)ccn2)c(C2CC2)nc1N1CCN(C(=O)CCO)[C@H](C2CC2)C1 [Compound 734, (R)-5-((4-chloropyridin-2-yl)oxy)-6-cyclopropyl-2-(3-cyclopropyl-4-(3-hydroxypropanoyl)piperazin-1-yl)nicotinonitrile] | < 500 nM |
| COC(=O)CCC(=O)N1CCN(c2nc(C3CC3)c(-c3ccnc(Cl)c3)cc2C#N)C[C@H]1C1CC1 [Compound 739, (R)-methyl 4-(4-(2′-chloro-5-cyano-2-cyclopropyl-3,4′-bipyridin-6-yl)-2-cyclopropylpiperazin-1-yl)-4-oxobutanoate] | < 500 nM |
| C=Cc1cc(-c2c(C3CC3)nc(N3CCN(C(=O)OC(C)(C)C)[C@H](C4CC4)C3)c(C#N)c2C)cnn1 [Compound 772, (R)-tert-butyl 4-(3-cyano-6-cyclopropyl-4-methyl-5-(6-vinylpyridazin-4-yl)pyridin-2-yl)-2-cyclopropylpiperazine-1-carboxylate] | 500 to 1000 nM |
| COCCC(=O)N1CCN(c2nc(C3CC3)c(-c3ccnc(OS(=O)(=O)C(F)(F)F)c3)cc2C#N)C[C@H]1C [Compound 779, (R)-5-cyano-2-cyclopropyl-6-(4-(3-methoxypropanoyl)-3-methylpiperazin-1-yl)-[3,4′-bipyridin]-2′-yl trifluoromethanesulfonate] | 1000 to 10000 nM |
| C=Cc1cnnc(-c2c(C3CC3)nc(N3CCN(C(=O)C[C@@H]4CCO4)[C@H](C4CC4)C3)c(C#N)c2C)c1 [Compound 780, 6-cyclopropyl-2-((R)-3-cyclopropyl-4-(2-((S)-oxetan-2-yl)acetyl)piperazin-1-yl)-4-methyl-5-(5-vinylpyridazin-3-yl)nicotinonitrile] | < 500 nM |
| C=Cc1cnc2c(-c3cc(C#N)c(N4CCN(C(=O)/C=C/CCO)[C@H](C(C)C)C4)nc3C3CC3)cccc2n1 [Compound 790, (R)-6-cyclopropyl-2-(4-(5-hydroxypent-2-enoyl)-3-isopropylpiperazin-1-yl)-5-(2-vinylquinoxalin-5-yl)nicotinonitrile] | < 500 nM |
| C=Cc1ccnc(Nc2cc(C#N)c(N3CCN(C(=O)/C=C/CCO)[C@H](C(C)C)C3)nc2C2CC2)c1 [Compound 791, (R,E)-6-cyclopropyl-2-(4-(5-hydroxypent-2-enoyl)-3-isopropylpiperazin-1-yl)-5-((4-vinylpyridin-2-yl)amino)nicotinonitrile] | < 500 nM |
| C=Cc1cc(-c2c(C3CC3)nc(N3CCN(C(=O)/C=C/CCO)[C@H](C(C)C)C3)c(C#N)c2C)ccn1 [Compound 795, (R,E)-2-cyclopropyl-6-(4-(5-hydroxypent-2-enoyl)-3-isopropylpiperazin-1-yl)-4-methyl-2′-vinyl-3,4′-bipyridine-5-carbonitrile] | < 500 nM |
| C=Cc1ccnc(Nc2cc(C#N)c(N3CCN(C(=O)/C=C/CCO)[C@H](C4CC4)C3)nc2C2CC2)c1 [Compound 798, (R,E)-6-cyclopropyl-2-(3-cyclopropyl-4-(5-hydroxypent-2-enoyl)piperazin-1-yl)-5-((4-vinylpyridin-2-yl)amino)nicotinonitrile] | < 500 nM |
| C=Cc1cc(-c2cc(C#N)c(N3CCN(C(=O)CC4CCC(=O)O4)[C@H](C4CC4)C3)nc2C2CC2)ccn1 (stereo partly drawn) [Compound 802, 2-cyclopropyl-6-((3R)-3-cyclopropyl-4-(2-(5-oxotetrahydrofuran-2-yl)acetyl)piperazin-1-yl)-2′-vinyl-[3,4′-bipyridine]-5-carbonitrile] | < 500 nM |
